Test results taken from US20040202713A1, “Means and method for hormonal contraception” (priority 2001, published 2004).

Legend:
young healthy women = experiment: Clinical study in contraception, sequential regimen (Example 1): vaginal ultrasonography, endogenous hormones, bleeding pattern; type: in vivo, human; conditions: 2 mg 17beta-estradiol days 1-14, then 10 mg dydrogesterone + 2 mg 17beta-estradiol days 15-28, single cycle
Text: Women who participated ill the study described in this example were all selected on the basis that they were users of ‘high’ dose monophasic ethinyl estradiol-containing combined oral contraceptives. The reasons for applying this selection criterion was that there is a dose relationship between follicular development and ethinyl estradiol whether given alone or in combination with a progestogen, i.e. less follicular development in the presence of the higher dose. Participation of the females involved in the study started at a moment of (almost) complete suppression of follicular development. This condition is not met if a person has their first day of bleeding in a natural cycle, after a tablet-free interval, or immediately after a low-dose combined oral contraceptive. A clinical study in contraception was conducted in 9 young healthy women who previously used a monophasic oral contraceptive pill with at least 30 microgram of ethinyl estradiol. The women were administered 2 mg 17beta-estradiol during days 1-14 of the cycle. From days. 15 to 28 of the cycle 10 mg dydrogesterone combined with 2 mg 17beta-estradiol was administered. The participants were followed by vaginal ultrasonography and blood sampling for endogenous hormones to assess ovarian function (ovulation-inhibition). Vaginal bleeding pattern and feeling of well being were scored by the participants.

women [1] = experiment: Clinical study in contraception, combined ethinyl estradiol/dydrogesterone regimen (Example 2); type: in vivo, human; conditions: 30 μg ethinyl estradiol + 20 mg dydrogesterone daily for 24 days, then 4 days placebo; 8 women
Method: A clinical study in contraception is conducted in 8 women, who were selected on the basis of the criteria mentioned in Example 1, using 30 μg ethinyl estradiol and 20 mg dydrogesterone. The aforementioned dose is administered on a daily basis during 24 days, followed by a hormone-free period placebo's) of 4 days.

women [2] = experiment: Clinical study with dydrogesterone as progestogen-only preparation (Example 3); type: in vivo, human; conditions: 20 mg dydrogesterone once a day, uninterrupted for 4 months, 8 women
Method: A clinical study with dydrogesterone as a progestogen-only preparation is conducted in 8 women who were selected on the basis of the criteria mentioned in Example 1. The 8 women receive a 20 mg dosage of dydrogesterone once a day, uninterruptedly during a period of 4 months.

humans = conditions: reported by Claassen et al., Acta Endocrinologica (1967); cited from earlier work
[3] = compared with commercially used synthetic progestogens; cited from earlier work
[4] = hormone replacement therapy with 17beta-estradiol dydrogesterone (Grisar et al. 1999); cited from earlier work

## CC(=O)[C@H]1CC[C@H]2[C@@H]3C=CC4=CC(=O)CC[C@@]4(C)[C@@H]3CC[C@]12C [dydrogesterone, 9β,10α-pregna-4,6-diene-3,20-dione]
Young healthy women; 9 women
  Ovulation inhibition (subjects with inhibition): 7 of the 9
Young healthy women; scored by participants
  Intermenstrual bleeding: No intermenstrual bleeding was observed
Women [1]
  Ovulation inhibition: ovulation inhibition is achieved
  Withdrawal bleeding: Regular withdrawal bleeding occurs in all women
Women [2]
  Irregular bleeding: some unpredictable irregular bleeding
  Menstrual flow: reduction of the usual menstrual flow
  Ovulation inhibition: Ovulation is inhibited
humans
  Ovulation inhibition in humans: does not inhibit ovulation in humans
[3]
  Estrogenic, glucocorticoid, anabolic or androgenic properties: does not exhibit estrogenic, glucocorticoid, anabolic or androgenic properties
[4]
  Adverse effects on blood pressure: no adverse effects on blood pressure
